From patent US20260167659A1, “STING AGONISTS” (LIGACHEM BIOSCIENCES INC., priority 2022, published 2026)

Key:
[1] = Normal cell cytotoxicity in CD34+ HSC, CellTiter-Glo; format: cell-based; conditions: human, CD34+ hematopoietic stem cells (HSCs), read-out: In vitro cell cytotoxicity in CD34+ HSC CC50
Procedure: The CD34^+ hematopoietic stem cells (HSCs) were purchased from […]™ (#70002.3). The cells (2×10^4 cells per well) were cultured in StemSpan™ SFEM II medium supplemented with StemSpan™ CD34+ Expansion Supplement (#02691) in a 6-well plate at 37° C. for 7 days. On day 3 or 4, an equal volume of fresh complete medium was added into the cell culture. On day 7, the cells (4×10^4 cells per well) were seeded in a 96-well white plate and rested for 24 hours in the same condition.
After 72 hours, the cell viability was measured using CellTiter-Glo Luminescent Cell Viability Assay (Promega, #G7573) according to the manufacture's instruction. The signal was detected using an EnVision Xcite multilabel reader and data were analyzed using GraphPad Prism 8 software.

[2] = Plasma pharmacokinetics in naive Balb/C mouse, LC-MS/MS; format: in vivo; conditions: 1.5 mg/kg single IV; for AUC∞, norm / Cmax, norm: n = 3, dose-normalised; for AUC(0-inf) / AUC(0-t) / C0 / Cmax / clearance / half-life / Vd: female; for AUC(0-inf) / AUC(0-t) / C0 / Cmax: n = 3, plasma; for clearance / half-life / Vd: plasma; for clearance / half-life: n = 3; for Vd: n = 3, read-out: VSS
Procedure: For in vivo evaluation of STING agonist compounds described herein in naïve Balb/C mouse, single doses of STING agonist compounds were given at 1.5 mg/kg intravenously into female BALB/c mice (Orientbio, South Korea) at 6-8 weeks of age. Pharmacokinetics were studied following injection of the STING agonist compounds into Balb/C mice. Plasma samples were taken at various time points and stored frozen for analysis. The plasma concentrations of the STING agonist compounds at the indicated time points were measured using a LC-MS/MS analysis method.
Briefly, 250 μL of acetonitrile (ACN) solution was added in both 50 μL of sample and 50 μL of plasma containing 10 nM Dextromethorphan (internal standard), and the solutions were mixed vigorously using a vortex mixer for 5 minutes. The samples were then spun down at 14,000 rpm, 4° C. for 5 minutes. 100 μL of supernatants were combined with 100 μL of mobile phase A (0.1% formic acid in water with 5% ACN) and mixed thoroughly. The samples were measured for the STING agonist compounds using a LC-MS/MS (Nexera LC40 (SHIMADZU) and QTRAP4500 (SCIEX)).

[3] = Normal cell cytotoxicity in PBMCs, CellTiter-Glo; format: cell-based; conditions: human, read-out: In vitro cell cytotoxicity in PBMCs CC50
Procedure: PBMCs were also purchased from […]™ (#700025.2). The cells (8.0×10^4 cells per well) were seeded in a flat-bottomed 96-well plate in RPMI 1640 medium (Gibco, #22400097) with 10% heat-inactivated FBS and 1× Antibiotic-Antimycotic (Gibco, #15240062) and rested for 24 hours at 37° C. […] After 72 hours, the cell viability was measured using CellTiter-Glo Luminescent Cell Viability Assay (Promega, #G7573) according to the manufacture's instruction. The signal was detected using an EnVision Xcite multilabel reader and data were analyzed using GraphPad Prism 8 software.
To verify the effect of the STING agonist compounds in normal cell cytotoxicity, the PBMCs were treated with the STING agonist compounds for 3 days and measured the percentage of cell death.

hSTING HAQ variant = target: T1, hSTING HAQ variant (Homo sapiens, UniProt Q86WV6, G230A/H232R/R293Q/R71H); assay: STING activation, THP1-Dual IRF3 reporter assay, hSTING-HAQ cells; format: cell-based; conditions: IRF3 luciferase reporter, 24 hours, read-out: STING activity using hSTING-HAQ cells, HAQ EC50
T1 construct: host or cells: THP1-Dual cells (human monocytes)
T1 sequence (Q86WV6 whole entry R71H/G230A/H232R/R293Q): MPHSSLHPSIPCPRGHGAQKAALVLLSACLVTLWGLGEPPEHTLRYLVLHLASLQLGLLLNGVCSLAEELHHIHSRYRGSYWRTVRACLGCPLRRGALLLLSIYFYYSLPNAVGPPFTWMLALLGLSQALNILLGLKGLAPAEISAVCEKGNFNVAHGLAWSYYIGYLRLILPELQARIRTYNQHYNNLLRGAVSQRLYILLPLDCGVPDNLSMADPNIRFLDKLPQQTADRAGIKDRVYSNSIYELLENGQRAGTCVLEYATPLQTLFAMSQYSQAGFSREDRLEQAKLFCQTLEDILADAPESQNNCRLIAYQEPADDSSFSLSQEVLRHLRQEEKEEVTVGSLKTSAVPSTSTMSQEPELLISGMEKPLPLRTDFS
Procedure: (§1) To assess potency of STING agonist compounds described herein, THP1-Dual™ Cells (NF—KB-SEAP and IRF-Lucia luciferase reporter monocytes, InvivoGen) were used. The reporter cells were knocked-in either of hSTING-WT (R232, #thpd-r232), HAQ variant (#thpd-nfis), or H232 variant (#thpd-h232). All cells were cultured at 37° C. in a humidified incubator at 5% CO2 and maintained in RPMI 1640 medium (Gibco, #22400097) supplemented with 10% heat-inactivated FBS and 1×Pen-Strep (Gibco, #15140122). To measure STING agonist-mediated IRF3 activity, the cells (9.0×10^4 cells per well) were seeded in a flat-bottomed 96-well plate. The next day, the cells were treated with compounds in a serial dilution for 24 hours. Subsequently, 20 μL of the cell culture supernatant and 50 μL of the QUANTI-Luc™ reagent (InvivoGen, #rep-qlc) were mixed in a 96-well white plate and then, luciferase activity was measured using an EnVision Xcite multilabel reader. The data were analyzed using Prism8 software (4-parameter).
(§2) The potency of STING agonist compounds was evaluated by the activation of Type I Interferon pathway using THP-1 IRF3 reporter assay.

hSTING-WT (R232) = target: T2, hSTING-WT (R232) (Homo sapiens, UniProt Q86WV6, H232R); assay: STING activation, THP1-Dual IRF3 reporter assay, hSTING-R232 cells; format: cell-based; conditions: IRF3 luciferase reporter, 24 hours, read-out: STING activity using hSTING-R232 cells EC50
T2 construct: host or cells: THP1-Dual cells (human monocytes) with knocked-in hSTING R232
T2 sequence (Q86WV6 whole entry H232R): as the sequence (Q86WV6 whole entry R71H/G230A/H232R/R293Q) above, with H71R, A230G, Q293R counted along it
Procedure: as §1, §2

human STING = target: T3, human STING (Homo sapiens, UniProt Q86WV6, H232R); assay: Direct STING binding, HUMAN STING WT BINDING KIT (Cisbio); conditions: direct binding to human STING WT protein in vitro; read-out: Binding potency EC50
T3 construct: purchased Cisbio 64BDSTGPEG
T3 sequence (Q86WV6 whole entry H232R): as the sequence (Q86WV6 whole entry R71H/G230A/H232R/R293Q) above, with H71R, A230G, Q293R counted along it
Description: Additionally, for analysis of direct binding potency of STING agonist compounds described herein to human STING, HUMAN STING WT BINDING KIT (Cisbio, #64BDSTGPEG) was used according to the manufacture's instruction.

hSTING H232 variant = target: T4, hSTING H232 variant (Homo sapiens, UniProt Q86WV6); assay: STING activation, THP1-Dual IRF3 reporter assay, hSTING-H232 cells; format: cell-based; conditions: IRF3 luciferase reporter, 24 hours, read-out: STING activity using hSTING-H232 cells, H232 EC50
T4 construct: host or cells: THP1-Dual cells (human monocytes) with knocked-in hSTING H232
Procedure: as §1, §2

SMILES: CCn1nc(C)cc1C(=O)Nc1nc2cc(C(N)=O)cc(OC)c2n1C/C=C/Cn1c(NC(=O)c2cc(C)nn2CC)nc2cc(C(N)=O)cc(OCCCN3CCOCC3)c21 [Comparative #1, reference compound]
- CC50 at 72 h [1]: 0.0021 µM
- AUC∞, norm [2]: 0.66 ± 0.07 kg·h/L
- Cmax, norm [2]: 1.94 ± 0.30 kg/L
- AUC(0-inf) [2]: 990 ± 100 ng·h/mL
- AUC(0-t) [2]: 980 ± 100 ng·h/mL
- C0 [2]: 4630 ± 860 ng/mL
- Cmax [2]: 2910 ± 450 ng/mL
- clearance [2]: 25.5 mL/min/kg
- half-life [2]: 54.6 ± 2.4 min
- Vd [2]: 0.7 ± 0.15 L/kg
- CC50 at 72 h [3]: 0.00334 µM

SMILES: CCc1nc(C)oc1C(=O)Nc1nc2cc(C(N)=O)cnc2n1C/C=C/Cn1c(NC(=O)c2oc(C)nc2CC)nc2cc(C(N)=O)cc(OCCCO)c21 [Comparative #2, reference compound]
- EC50 (hSTING HAQ variant): 0.213 µM
- AUC∞, norm [2]: 0.05 ± 0.01 kg·h/L
- Cmax, norm [2]: 0.16 ± 0.02 kg/L
- AUC(0-inf) [2]: 80 ± 10 ng·h/mL
- AUC(0-t) [2]: 70 ± 10 ng·h/mL
- C0 [2]: 380 ± 50 ng/mL
- Cmax [2]: 240 ± 30 ng/mL
- clearance [2]: 328 mL/min/kg
- half-life [2]: 12 ± 1.8 min
- Vd [2]: 5.1 ± 1.01 L/kg
- CC50 at 72 h [3]: 0.00628 µM
- EC50 (hSTING-WT (R232)): 0.213 µM
- EC50 (human STING): 0.00013 µM
- EC50 (hSTING H232 variant): 0.0366 µM

SMILES: CCn1nc(C)cc1C(=O)Nc1nc2cc(C(N)=O)cc(OC)c2n1C/C=C/Cn1c(NC(=O)c2cc(C)nn2CC)nc2cc(C(N)=O)cc(OC/C=C/Cn3cc(NC(=O)OCc4ccc(O[C@@H]5O[C@H](C(=O)O)[C@@H](O)[C@H](O)[C@H]5O)c(C(=O)NCCC(=O)O)c4)cn3)c21 [Compound 281]
- EC50 (hSTING HAQ variant): 0.108 µM
- AUC∞, norm [2]: 9.89 ± 0.90 kg·h/L
- Cmax, norm [2]: 4.11 ± 0.28 kg/L
- AUC(0-inf) [2]: 14800 ± 1340 ng·h/mL
- AUC(0-t) [2]: 14800 ± 1350 ng·h/mL
- C0 [2]: 6500 ± 490 ng/mL
- Cmax [2]: 6160 ± 420 ng/mL
- clearance [2]: 1.67 mL/min/kg
- half-life [2]: 168 ± 16.2 min
- Vd [2]: 0.32 ± 0.03 L/kg
- CC50 at 72 h [3]: 0.127 µM
- EC50 (hSTING-WT (R232)): 0.0392 µM
- EC50 (hSTING H232 variant): 0.0967 µM

SMILES: CCn1nc(C)cc1C(=O)Nc1nc2cc(C(N)=O)cc(OC)c2n1C/C=C/Cn1c(NC(=O)c2cc(C)nn2CC)nc2cc(C(N)=O)cc(OC/C=C/CN3CCN(C(=O)OCc4ccc(O[C@@H]5O[C@H](C(=O)O)[C@@H](O)[C@H](O)[C@H]5O)c(C(=O)NCCOCCOCCO)c4)CC3=O)c21 [Compound 302]
- EC50 (hSTING HAQ variant): 0.0835 µM
- CC50 at 72 h [1]: 0.0215 µM
- CC50 at 72 h [3]: 0.0592 µM
- EC50 (hSTING-WT (R232)): 0.0467 µM
- EC50 (human STING): 0.00038 µM
- EC50 (hSTING H232 variant): 0.0966 µM

SMILES: CCn1nc(C)cc1C(=O)Nc1nc2cc(C(N)=O)cc(OC)c2n1C/C=C/Cn1c(NC(=O)c2cc(C)nn2CC)nc2cc(C(N)=O)cc(OC/C=C/CN3CCN(C(=O)OCc4ccc(O[C@@H]5O[C@H](C(=O)O)[C@@H](O)[C@H](O)[C@H]5O)c(C(=O)NCCOCCOCCN(C)C)c4)CC3=O)c21 [Compound 309]
- EC50 (hSTING HAQ variant): 0.052 µM
- CC50 at 72 h [3]: 0.0443 µM
- EC50 (hSTING-WT (R232)): 0.0312 µM
- EC50 (human STING): 0.0004 µM
- EC50 (hSTING H232 variant): 0.0704 µM

SMILES: CCn1nc(C)cc1C(=O)Nc1nc2cc(C(N)=O)cc(NC/C=C/Cn3cc(N(CCC(=O)O)C(=O)OCc4ccc(O[C@@H]5O[C@H](C(=O)O)[C@@H](O)[C@H](O)[C@H]5O)c(C(=O)NCCOCCOCCN(C)C)c4)cn3)c2n1C/C=C/Cn1c(NC(=O)c2cc(C)nn2CC)nc2cc(C(N)=O)cc(OC)c21 [Compound 363]
- CC50 at 72 h [1]: 0.0861 µM
- EC50 (hSTING-WT (R232)): 0.403 µM
- EC50 (human STING): 0.0008 µM

SMILES: CCn1nc(C)cc1C(=O)Nc1nc2cc(C(N)=O)cc(OC/C=C/Cn3cc(NC(=O)OCc4ccc(O[C@@H]5O[C@H](C(=O)O)[C@@H](O)[C@H](O)[C@H]5O)c(C(=O)NCCOCCOCCO[C@@H]5O[C@H](C(=O)O)[C@@H](O)[C@H](O)[C@H]5O)c4)cn3)c2n1C/C=C/Cn1c(NC(=O)c2cc(C)nn2CC)nc2cc(C(N)=O)cc(OCCCC(=O)O)c21 [Compound 396]
- CC50 at 72 h [1]: 0.156 µM
- EC50 (hSTING-WT (R232)): 0.24 µM

SMILES: CCn1nc(C)cc1C(=O)Nc1nc2cc(C(N)=O)cc(OC)c2n1C/C=C/Cn1c(NC(=O)c2cc(C)nn2CC)nc2cc(C(N)=O)cc(OC/C=C/CN3CCCN3C(=O)OCc3ccc(O[C@@H]4O[C@H](C(=O)O)[C@@H](O)[C@H](O)[C@H]4O)c(C(=O)NCCOCCOCCO)c3)c21 [Compound 422]
- EC50 (hSTING HAQ variant): 0.477 µM
- CC50 at 72 h [1]: 0.0321 µM
- CC50 at 72 h [3]: 0.207 µM
- EC50 (hSTING-WT (R232)): 0.045 µM
- EC50 (human STING): 0.00092 µM
- EC50 (hSTING H232 variant): 0.119 µM

SMILES: CCn1nc(C)cc1C(=O)Nc1nc2cc(C(N)=O)cc(OC)c2n1C/C=C/Cn1c(NC(=O)c2cc(C)nn2CC)nc2cc(C(N)=O)cc(OC/C=C/CN3CCCN3C(=O)OCc3ccc(O[C@@H]4O[C@H](C(=O)O)[C@@H](O)[C@H](O)[C@H]4O)c(C(=O)NCCOCCOCCN(C)C)c3)c21 [Compound 424]
- EC50 (hSTING HAQ variant): 0.517 µM
- CC50 at 72 h [1]: 0.0306 µM
- CC50 at 72 h [3]: 0.147 µM
- EC50 (hSTING-WT (R232)): 0.072 µM
- EC50 (human STING): 0.0016 µM
- EC50 (hSTING H232 variant): 0.117 µM
